Data as given in article PMC4428838, “Optimization of Invasion-Specific Effects of Betulin Derivatives on Prostate Cancer Cells through Lead Development” (PLoS ONE, 2015).

Legend:
Type in all cases: cell-based
LAPC-4 = assay: Secondary 3D screen (spheroid size, complexity, cell death); settings: yellow and red clusters
Description: Next, the 25 selected betulin derivatives depicted in Figs 1–3 including control compounds were again thoroughly tested across the same panel of prostate-derived cell lines already used in the preliminary, 2D high-throughput screen. The resulting dendrograms were either generated separately for each cell line (S4 Fig), combined into a single dendrogram (Fig 5A), or shown as reduced organoid sizes (area; Fig 5B).
Fig 5 Secondary 3D screens. Experimental betulin derivatives and control compounds were tested across a panel of prostate cancer lines (LNCaP, LAPC-4) and non-transformed, prostate epithelial cells (EP156T) in 3D culture. A) The dendrogram is based on three main morphological parameters and combines all data from primary and secondary 3D screens. […] B) Boxplots showing the impact of selected compounds on spheroid size (Area). Data scaling: as described in Fig 4 C) Effects of all betulin derivatives and control compounds on cell death (number of dead cells).
All 3D cultures were done in growth factor-free Matrigel Basement-membrane Matrix (Corning Inc., New York, NY, USA) using 96-well Angiogenesis μ-plates (ibidi GmbH, Munich, Germany) as described before.[38] “Sandwich” assays in short: bottom wells of cooled Angiogenesis plates were filled with 10 μL 4 mg/mL Matrigel, centrifuged for 20 min 200 g and incubated at 37°C temperature for approximately 30–60 min or until the ECM had polymerized. 1,000–1,500 cells were mixed in 2 mg/mL ECM-medium, and 20 μL of cell suspension was added in each well. The plates were centrifuged for 10 min at 100 g, or until the cells had settled on top of the lower ECM. Finally, the outer wells and side reservoirs were filled with water for humidification, and the culture plates placed into the incubator for 3–4 h or overnight. The following day, 60 μL of cell culture medium were added; refreshed every third day by carefully aspirating the medium. This “sandwich” setting allows almost unifocal alignment of cells and 3D structures in a single optical plane, thus reducing the time required for confocal stack imaging.
All control compounds were purchased from Selleck (Munich, Germany), except for staurosporine (Sigma-Aldrich, St. Louis, MO, USA) and Y-27632 (Tocris, Bristol, UK) and dissolved in dimethyl sulfoxide (DMSO) as a vehicle at 10 mM. In the primary and secondary 3D screens, experimental and control compound exposures were performed in triplicates. Four concentrations for each compound were applied (0.03, 0.1, 0.3 and 1 μM). Compound treatments were initiated four days after cell embedding, and continued for six days after which spheroids were stained and imaged.
Supplementary file pone.0126111.s004.eps: S4 Fig Secondary screens. Dendrograms for A) LNCaP, B) LAPC-4, and C) Ep156T betulin screens in 3D culture have been constructed using three main read-outs: spheroid size, spheroid complexity, and cell death. […] (EPS) Click here for additional data file.

PC-3 = assay: Wound healing assay in 2D monolayer culture (IncuCyte); settings: for wound healing 50% cut-off concentration: 2D monolayer, printed in Fig 4D; for reduction of wound closure: at 300 nM, after 64 hours, 2D
Method: Cells were cultured on ImageLock plates (Essen Bioscience, Ann Arbor, MI, USA) until fully confluent and scratched with a WoundMaker instrument (Essen Bioscience). All detached cells were removed by aspiration and medium supplemented with experimental compounds was added. Wound closure was monitored and quantified with the IncuCyte live-cell imager (Essen Bioscience).
A) Graph showing the transition of PC-3 spheroids from symmetrical acini to irregular invasive structures over 6 days, as measured by general symmetry (roundness %). […] B) Conventional wound healing assay performed in monolayer culture over a period of 64 hours. Wound closure is measured as relative wound density i.e. percentage of original wound area reclaimed by migrating cells. […] (EPS) Click here for additional data file.

PC3 cells = assay: Cell morphology and actin cytoskeleton in 2D monolayer culture; settings: PC3, 2D, 72h
Method: As a control, we also tested morphologies treated with the same panel of anti-invasive compounds 4, 5, 6, 16 and 20 as well as betulin (1) on PC3 cells grown in 2D monolayer cultures (S9 Fig).
Supplementary file pone.0126111.s009.tif: S9 Fig Morphologies of PC-3, LNCaP and Ep156T cells in 2D monolayer culture, exposed 72h to selected betulin derivatives. Actin cytoskeleton (filamentous or F- actin) is stained green (LifeAct), nuclei with a red dye (confocal microscope images, 40× objective, scale bar shown for each panel on the right lower corner). (TIF) Click here for additional data file.

[1] = system: actin cytoskeleton of PC-3, LNCaP and Ep156T spheroids; assay: F-actin cytoskeleton (phalloidin staining) in 3D spheroids; settings: after 48 hours of exposure; seen in Ep156T acini and PC-3 spheroids, not LNCaP
Description: […] […] For phenotypic comparisons, we tested a panel of reference compounds targeting Akt, Rac, ROCK, Src, and other pathways, broadly linked to the actin cytoskeleton.
Fig 8 3D morphologies of prostate spheroids, exposed to selected betulin derivatives and captured with a confocal microscope. Actin cytoskeleton (filamentous or F-actin) is stained green (phalloidin), nuclei with a red dye (confocal microscope images, 40× objective, scale bar shown for each panel on the right lower corner).

[2] = system: PC-3, LNCaP, LAPC-4, Ep156T; assay: Primary and secondary 3D screens combined across the cell line panel; settings: cell lines other than PC-3, 3D, 300 nM or lower (except compound 15)
Method: Fig 5 Secondary 3D screens. Experimental betulin derivatives and control compounds were tested across a panel of prostate cancer lines (LNCaP, LAPC-4) and non-transformed, prostate epithelial cells (EP156T) in 3D culture. A) The dendrogram is based on three main morphological parameters and combines all data from primary and secondary 3D screens. Effective compound treatments are indicated in red and yellow, yellow being the most invasion-specific. B) Boxplots showing the impact of selected compounds on spheroid size (Area). Data scaling: as described in Fig 4 C) Effects of all betulin derivatives and control compounds on cell death (number of dead cells).
In order to assist functional categorization of our betulin derivatives, we combined all data into a single dendrogram, shown in Fig 5A. In addition, multiparametric representation of all experimental data as a single heatmap is highly informative (S5 Fig) and a potent way to illustrate the effects of compounds on growth, structural complexity and cell death across multiple cell lines. […] However, at lower concentrations, these compounds may act as potent and specific inhibitors of cell invasion and motility.
Supplementary file pone.0126111.s005.eps: S5 Fig Primary and secondary screens. […] The main read-outs (Area = Size, Complexity = Invasiveness, Red = Cell death) are shown in their own columns. Data scaling: DMSO control has been given a value 0 whereas paclitaxel control is valued -100 or 100 depending on the read-out. Color key is located in the upper right corner. (EPS) Click here for additional data file.
Supplementary file pone.0126111.s006.tif: S6 Fig Confocal images from primary and secondary betulin screens. Viable cells have been stained with calcein AM (green) and dead cells with ethidium homodimer-2 (red) (5× objective, maximum intensity projections, scale bar = 100 μm). (TIF) Click here for additional data file.

| SMILES | efficacy in 3D LAPC-4 culture (dendrogram clusters) (LAPC-4) | wound healing 50% cut-off concentration (PC-3) | reduction of wound closure (PC-3) [%] | morphology and actin cytoskeleton of cells in 2D monolayer (PC3 cells) | organization of actin cytoskeleton in 3D spheroids [1] | effects on the other cell lines at anti-invasive concentrations [2] | concentration required in 2D culture for effects comparable to 3D (PC-3; 2D wound healing) |
| --- | --- | --- | --- | --- | --- | --- | --- |
| CC(=O)O[C@H]1C(=O)[C@@]2(C)[C@H]([C@H](OC(=O)c3ccccc3)[C@]3(O)C[C@H](OC(=O)[C@H](O)[C@@H](NC(=O)c4ccccc4)c4ccccc4)C(C)=C1C3(C)C)[C@]1(OC(C)=O)CO[C@@H]1C[C@@H]2O [Paclitaxel, paclitaxel, reference compound] | efficacy of all positive controls |  |  |  |  |  |  |
| C=C(C)[C@@H]1CC[C@]2(C(=O)O)CC[C@]3(C)C(CCC4[C@@]5(C)Cc6ncccc6C(C)(C)C5CC[C@]43C)C12 (stereo partly drawn) [Compound 20] | most active | ca. 0.3 μM | 50 | No morphologies and visible effects on the actin cytoskeleton | effectively disrupted the organization of actin cytoskeleton | no noticeable effects on the other cell lines |  |
| C=C(C)[C@@H]1CC[C@]2(C(=O)O)CC[C@]3(C)C(CCC4[C@@]5(C)Cc6cnoc6C(C)(C)C5CC[C@]43C)C12 (stereo partly drawn) [Compound 5] |  |  |  | No morphologies and visible effects on the actin cytoskeleton | effectively disrupted the organization of actin cytoskeleton |  | higher than 1 μM |
| C=C(C)[C@@H]1CC[C@]2(C(=O)O)CC[C@]3(C)C(CCC4[C@@]5(C)Cc6cccnc6C(C)(C)C5CC[C@]43C)C12 (stereo partly drawn) [Compound 19] | most active |  |  |  |  | no noticeable effects on the other cell lines |  |
| CC(C)[C@@H]1CC[C@]2(C(=O)O)CC[C@]3(C)C(CCC4[C@@]5(C)Cc6cnoc6C(C)(C)C5CC[C@]43C)C12 (stereo partly drawn) [Compound 4] | most active | ca. 0.3 μM | 50 | No morphologies and visible effects on the actin cytoskeleton |  | no noticeable effects on the other cell lines |  |
| C=C(C)[C@@H]1CC[C@]2(C(=O)O)CC[C@]3(C)C(CCC4[C@@]5(C)Cc6c[nH]nc6C(C)(C)C5CC[C@]43C)C12 (stereo partly drawn) [Compound 6] | most active |  |  | No morphologies and visible effects on the actin cytoskeleton | effectively disrupted the organization of actin cytoskeleton | no noticeable effects on the other cell lines |  |
